According to US8975232B2, “Macrocyclic kinase inhibitors and uses thereof” (President and Fellows of Harvard College, priority 2010, dated 2015):
Read-outs that look alike come from different tables or passages of the source.

Experiments:
[1] = biological target: Pim1 (Homo sapiens, UniProt P11309); assay: In vitro selection of DNA-templated macrocycle library against GST-fused target; format: binding; conditions: one round of selection; DNA-linked library member
Text: (§1) Multiple representatives were chosen from each protein class so that we could compare selection results within protein families. In total, we performed a single round of in vitro selection against 36 protein targets. Additionally, we also performed a selection for binding to GST (with no fused target protein) immobilized on glutathione-linked resin. Although successive rounds of selection (with or without DNA amplification and translation between rounds) can multiply net enrichment factors,^29 we hypothesized that recent advances in ultra high-throughput DNA sequencing would enable even modest enrichment factors to be robustly detected, and the findings in this work are the result of a single round of selection on each protein target.
(§2) Following in vitro selection, DNA templates linked to target-binding macrocycles were amplified in PCR reactions using primers containing “barcode” sequences specific to each selection (FIG. 3). We also amplified DNA templates from eight aliquots of the unselected library to determine the initial abundance of each library member. A set of 12 five-base barcodes used in pairwise combinations provided sufficient encoding complexity for one round of selection against 36 protein targets, a control selection against immobilized GST, and eight pre-selection library samples (Table 3). These barcodes were designed to differ by at least three bases from one another so that common DNA sequencing errors would not preclude barcode assignment. After affinity selection and PCR amplification, barcoded samples were combined in equimolar amounts and submitted for ultra high-throughput DNA sequencing^46,47 as a single sample.
(§3) To rapidly identify the DNA-linked macrocycles that survived target affinity selection, we used Solexa (Illumina) DNA sequencing technology.^48 Because standard Solexa sequencing read lengths at the time of this experiment were shorter than the length of our barcoded library templates (84 base pairs), the paired-end sequencing method, which provides both forward and reverse sequencing reads for each template, was used. We created a PERL computer program to analyze the large amount of data emerging from high-throughput sequencing. First, forward and reverse sequence reads were merged to give complete template sequences (FIG. 4a). Each complete DNA sequence was converted into a combination of a barcode (selection identity) and three codons (building block identities). Template sequences were then binned by barcode to deconvolute the results of each selection. The abundance fraction of each library member was determined within each selection by counting the number of corresponding DNA sequence occurrences and dividing by the total number of interpretable sequence reads for that selection. Finally, enrichment factors for each library member were computed by dividing post-selection abundance fraction by pre-selection abundance fraction. In total, we received 25.6 million paired forward and reverse sequence reads from two Solexa sequencing runs. Of these, all four codons (which require five out of six correct bases per codon for the building blocks, and three out of three correct bases per codon for the scaffold^24) and the selection barcode (which requires four out of five correct bases) could be conclusively assigned for 12.4 million sequences. As a result, we obtained ˜200,000 sequence reads for each selection, and 1.7 million sequence reads of the pre-selection library.
(§4) In vitro selections of the 13,824-membered library were conducted exactly as described above for the positive control selections. For each selection, 5 pmol of library were used. PCR amplification of selection survivors was performed with 5′-barcoded forward and reverse primers. Barcoded PCR amplicons were quantitated using Picogreen dsDNA quantitation reagent (Invitrogen), mixed in equimolar amounts, and submitted for high-throughput DNA sequencing.

[2] = biological target: MAPKAPK2 (Homo sapiens, UniProt P49137); assay: as above; format: binding; conditions: one round of selection; DNA-linked library member
Text: as §1, §2, §3, §4

[3] = biological target: T1, Src kinase (Homo sapiens, UniProt P12931); assay: Z'-LYTE kinase assay (Invitrogen), Src; format: biochemical; set-up: full-length kinase in the Z-LYTE assay vs. kinase domain in the current study; purchased Millipore
Method: Nine macrocycles enriched in the Src selection (FIG. 5) and synthesized as described above were assayed in vitro for the ability to inhibit Src kinase activity. Kinase activity was assayed in the presence of varying concentrations of macrocycle using the FRET-based Z′-LYTE assay (Invitrogen).
(§5) Src IC50 determinations and single-point inhibition measurements were performed using Invitrogen's Z′-LYTE Tyr 02 assay kit according to the manufacturer's protocols. All kinase assays were performed at ATP concentrations near KM,ATP values, except where noted otherwise. Active human Src kinase was obtained from Millipore. For kinome profiling and IC50 determinations against non-Src kinases, compounds were submitted to Invitrogen's SelectScreen Kinase Profiling Service.

[4] = biological target: T1, Src kinase; assay: In vitro selection of DNA-templated macrocycle library against GST-fused target; format: binding; conditions: one round of selection; DNA-linked library member
Text: as §1, §2, §3, §4

[5] = biological target: ABL1 (Homo sapiens, UniProt P00519); assay: SelectScreen kinase profiling; format: biochemical
Method: as §5

[6] = biological target: T2, AURKA (Aurora A) (Homo sapiens, UniProt O14965); assay: SelectScreen kinase profiling; format: biochemical
T2 sequence (O14965 1-403): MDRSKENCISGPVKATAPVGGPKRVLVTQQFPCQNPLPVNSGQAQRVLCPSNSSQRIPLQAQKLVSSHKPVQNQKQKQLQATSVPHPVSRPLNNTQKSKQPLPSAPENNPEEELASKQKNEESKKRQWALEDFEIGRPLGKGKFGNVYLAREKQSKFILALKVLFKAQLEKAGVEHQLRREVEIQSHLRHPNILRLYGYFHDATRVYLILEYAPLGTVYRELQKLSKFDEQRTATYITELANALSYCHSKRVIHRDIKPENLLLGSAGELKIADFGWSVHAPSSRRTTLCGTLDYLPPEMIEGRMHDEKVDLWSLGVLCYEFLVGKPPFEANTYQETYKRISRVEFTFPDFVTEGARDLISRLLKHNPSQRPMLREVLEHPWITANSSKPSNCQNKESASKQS
Method: as §5

[7] = test system: panel of 58 commercially available human protein kinases; assay: Kinase selectivity panel, Invitrogen SelectScreen; format: biochemical
Method: Macrocycle cis-A11-B1-C5-D7 was assayed at 50 μM against a representative panel of 58 commercially available human protein kinases including all nine mammalian Src family kinases (Table 8).
as §5

[8] = biological target: T3, Abl (Homo sapiens, UniProt P00519); assay: Continuous spectrophotometric kinase activity assay; format: biochemical
T3 construct: human c-Abl (residues 229-512); made in house
T3 sequence (P00519 229-512): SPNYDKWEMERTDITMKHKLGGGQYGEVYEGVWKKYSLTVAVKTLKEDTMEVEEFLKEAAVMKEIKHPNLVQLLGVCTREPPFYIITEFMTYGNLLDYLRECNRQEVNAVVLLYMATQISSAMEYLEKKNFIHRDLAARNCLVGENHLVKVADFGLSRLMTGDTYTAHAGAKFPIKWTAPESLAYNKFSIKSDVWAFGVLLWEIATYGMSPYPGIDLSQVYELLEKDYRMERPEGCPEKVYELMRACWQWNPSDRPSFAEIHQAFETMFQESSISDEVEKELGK
Text: (§6) Kinase domain constructs of human c-Abl (residues 229-512), chicken c-Src (residues 251-533 and residues 83-533), murine Lck (residues 227-509), and human Hck (residues 166-445) were expressed as previously described (Seeliger, Young et al. 2005; Seeliger, Nagar et al. 2007; the entire contents of each of which are incorporated by reference herein). Mutations were introduced into chicken c-Src (residues 251-533) (T338I, C277Q, L297M) by site-directed mutagenesis and verified by DNA sequencing.
(§7) In vitro kinase inhibition assays were performed using either a continuous spectrophotometric assay or a FRET-based endpoint assay.
(§8) The original characterization of kinase inhibition was performed with a commercial kinase assay that relies on a fluorescently labeled peptide kinase substrate (Z-LYTE, Invitrogen). For further characterization, a continuous spectrophotometric kinase activity assay was employed that is easily adapted to different substrate peptides as well as a wider range of peptide and ATP concentrations.

[9] = biological target: T4, Src kinase domain (chicken c-Src residues 251-533) (Gallus gallus, UniProt P00523); assay: as above; format: biochemical; conditions: for IC50: Src kinase domain
T4 construct: chicken c-Src (residues 251-533 and residues 83-533); made in house
Text: as §6, §7, §8

[10] = biological target: T5, Src kinase domain (Gallus gallus, UniProt P00523); assay: Fluorescence anisotropy binding assay; set-up: species or system chicken; conditions: fluorescein-labeled macrocycle, read-out: dissociation constant (KD)
T5 construct: chicken c-Src (residues 251-533 and residues 83-533); made in house
Method: The change in fluorescence anisotropy of fluorescein-labeled MC1, MC4 and MC9 at 518 nm upon excitation at 492 nm was monitored with a HORIBA Jobin Yvon FluoroMax-4 (Edison, N.J.) spectrofluorimeter. Kinase was titrated to 0.5 μM of the fluorescently labeled macrocycle in 100 mM Tris pH 8.0, 10 mM MgCl2 at 25° C. After equilibration, the increase in the fluorescence anisotropy of the fluorescently labeled ligand was recorded and fitted against a quadratic binding equation in Kaleidagraph (Synergy Software, Reading Pa.) to yield the dissociation constant KD.
To clarify the inhibitory mechanism of the compounds further, the binding affinity of fluorescently labeled MC1, MC4, and MC9 to Src kinase domain was determined in a fluorescence anisotropy assay (FIG. 21).

[11] = biological target: T6, HCK (Homo sapiens, UniProt P08631); assay: Continuous spectrophotometric kinase activity assay; format: biochemical; set-up: Kinase domain constructs of human c-Abl (residues 229-512), chicken c-Src (residues 251-533 and residues 83-533), murine Lck (residues 227-509), and human Hck (residues 166-445); made in house
Text: as §6, §7, §8
Target sequence in this assay (P08631 262-515 limits assumed): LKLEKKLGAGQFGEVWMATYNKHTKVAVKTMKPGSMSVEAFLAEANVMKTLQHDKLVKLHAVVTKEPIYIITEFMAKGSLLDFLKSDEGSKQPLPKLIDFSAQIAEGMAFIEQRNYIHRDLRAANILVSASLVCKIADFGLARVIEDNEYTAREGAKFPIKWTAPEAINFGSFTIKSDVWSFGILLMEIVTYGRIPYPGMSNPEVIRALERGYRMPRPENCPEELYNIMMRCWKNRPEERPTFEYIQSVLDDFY

[12] = biological target: T7, Lck (Mus musculus, UniProt P06240); assay: as above; format: biochemical, murine
T7 construct: murine Lck (residues 227-509); made in house
Text: as §6, §7, §8

[13] = biological target: AURKB (Aurora B) (Homo sapiens, UniProt Q96GD4); assay: SelectScreen kinase profiling; format: biochemical
Method: as §5

[14] = biological target: T6, HCK; assay: SelectScreen kinase profiling; format: biochemical
Method: as §5

[15] = biological target: RET (Homo sapiens, UniProt P07949); assay: SelectScreen kinase profiling; format: biochemical; conditions: 10-point titration
Method: as §5

[16] = biological target: FYN (Homo sapiens, UniProt P06241); assay: SelectScreen kinase profiling; format: biochemical
Method: as §5

[17] = biological target: FGR (Homo sapiens, UniProt P09769); assay: SelectScreen kinase profiling; format: biochemical; conditions: Fgr; 10-point titration
Method: as §5

[18] = test system: protein kinases; conditions: judged by similar criteria; cited from earlier work
[19] = biological target: BcLxL (1-209, Δ45-84, N-terminal GST-fused) (UniProt Q07817); assay: single round of affinity selection of the DNA-linked peptide on GST-Bcl-xL on glutathione beads; restriction digestion
[20] = 5 μM ATP, 100 μM Src optimal peptide
[21] = 5 μM ATP, 300 μM Src optimal peptide
[22] = 250 μM ATP, 300 μM Src optimal peptide

Sequence of Pim1 (P11309 whole entry, the tested form may be a part): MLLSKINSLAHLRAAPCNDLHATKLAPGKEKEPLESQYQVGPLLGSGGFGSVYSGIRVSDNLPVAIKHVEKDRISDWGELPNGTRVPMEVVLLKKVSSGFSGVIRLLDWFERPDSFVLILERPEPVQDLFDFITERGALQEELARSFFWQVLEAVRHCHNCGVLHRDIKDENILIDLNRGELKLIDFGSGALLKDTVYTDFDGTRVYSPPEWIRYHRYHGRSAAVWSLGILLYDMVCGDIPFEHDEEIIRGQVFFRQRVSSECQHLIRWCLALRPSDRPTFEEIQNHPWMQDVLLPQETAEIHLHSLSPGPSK
T1 sequence (P12931 whole entry, the tested form may be a part): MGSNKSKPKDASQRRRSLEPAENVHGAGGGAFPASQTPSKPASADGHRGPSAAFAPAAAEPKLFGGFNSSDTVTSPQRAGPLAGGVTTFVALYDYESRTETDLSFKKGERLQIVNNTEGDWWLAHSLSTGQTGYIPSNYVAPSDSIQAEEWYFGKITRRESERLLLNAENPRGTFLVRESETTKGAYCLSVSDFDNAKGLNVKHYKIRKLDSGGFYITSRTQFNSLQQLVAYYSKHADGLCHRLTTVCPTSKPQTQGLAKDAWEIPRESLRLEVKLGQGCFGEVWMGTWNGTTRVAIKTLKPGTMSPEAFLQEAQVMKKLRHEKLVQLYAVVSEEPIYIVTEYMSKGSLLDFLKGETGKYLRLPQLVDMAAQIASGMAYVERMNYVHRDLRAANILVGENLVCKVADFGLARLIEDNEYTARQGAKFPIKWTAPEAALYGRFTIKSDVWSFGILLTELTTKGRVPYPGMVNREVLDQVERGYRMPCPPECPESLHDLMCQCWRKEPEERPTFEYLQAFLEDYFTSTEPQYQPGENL
Sequence of MAPKAPK2 (P49137 whole entry): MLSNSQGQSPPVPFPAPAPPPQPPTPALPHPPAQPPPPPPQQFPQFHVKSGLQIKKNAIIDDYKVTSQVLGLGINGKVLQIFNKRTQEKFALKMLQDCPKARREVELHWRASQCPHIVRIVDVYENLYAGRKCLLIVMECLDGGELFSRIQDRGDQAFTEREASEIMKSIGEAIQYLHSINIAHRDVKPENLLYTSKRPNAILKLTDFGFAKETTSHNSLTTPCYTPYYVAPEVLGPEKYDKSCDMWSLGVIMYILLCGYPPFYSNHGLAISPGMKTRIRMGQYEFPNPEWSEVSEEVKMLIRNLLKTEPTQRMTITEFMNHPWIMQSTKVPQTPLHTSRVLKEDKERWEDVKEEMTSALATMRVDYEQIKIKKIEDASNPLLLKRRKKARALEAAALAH
T7 sequence (P06240 227-509): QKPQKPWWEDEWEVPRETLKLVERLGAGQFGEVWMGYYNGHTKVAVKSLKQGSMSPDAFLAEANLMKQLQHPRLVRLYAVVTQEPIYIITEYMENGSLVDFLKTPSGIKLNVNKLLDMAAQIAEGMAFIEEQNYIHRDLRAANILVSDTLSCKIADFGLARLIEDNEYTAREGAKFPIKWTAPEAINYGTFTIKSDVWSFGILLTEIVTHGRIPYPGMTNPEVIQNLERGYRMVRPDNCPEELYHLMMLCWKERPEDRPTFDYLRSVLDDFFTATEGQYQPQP
Sequence of ABL1 (P00519 whole entry): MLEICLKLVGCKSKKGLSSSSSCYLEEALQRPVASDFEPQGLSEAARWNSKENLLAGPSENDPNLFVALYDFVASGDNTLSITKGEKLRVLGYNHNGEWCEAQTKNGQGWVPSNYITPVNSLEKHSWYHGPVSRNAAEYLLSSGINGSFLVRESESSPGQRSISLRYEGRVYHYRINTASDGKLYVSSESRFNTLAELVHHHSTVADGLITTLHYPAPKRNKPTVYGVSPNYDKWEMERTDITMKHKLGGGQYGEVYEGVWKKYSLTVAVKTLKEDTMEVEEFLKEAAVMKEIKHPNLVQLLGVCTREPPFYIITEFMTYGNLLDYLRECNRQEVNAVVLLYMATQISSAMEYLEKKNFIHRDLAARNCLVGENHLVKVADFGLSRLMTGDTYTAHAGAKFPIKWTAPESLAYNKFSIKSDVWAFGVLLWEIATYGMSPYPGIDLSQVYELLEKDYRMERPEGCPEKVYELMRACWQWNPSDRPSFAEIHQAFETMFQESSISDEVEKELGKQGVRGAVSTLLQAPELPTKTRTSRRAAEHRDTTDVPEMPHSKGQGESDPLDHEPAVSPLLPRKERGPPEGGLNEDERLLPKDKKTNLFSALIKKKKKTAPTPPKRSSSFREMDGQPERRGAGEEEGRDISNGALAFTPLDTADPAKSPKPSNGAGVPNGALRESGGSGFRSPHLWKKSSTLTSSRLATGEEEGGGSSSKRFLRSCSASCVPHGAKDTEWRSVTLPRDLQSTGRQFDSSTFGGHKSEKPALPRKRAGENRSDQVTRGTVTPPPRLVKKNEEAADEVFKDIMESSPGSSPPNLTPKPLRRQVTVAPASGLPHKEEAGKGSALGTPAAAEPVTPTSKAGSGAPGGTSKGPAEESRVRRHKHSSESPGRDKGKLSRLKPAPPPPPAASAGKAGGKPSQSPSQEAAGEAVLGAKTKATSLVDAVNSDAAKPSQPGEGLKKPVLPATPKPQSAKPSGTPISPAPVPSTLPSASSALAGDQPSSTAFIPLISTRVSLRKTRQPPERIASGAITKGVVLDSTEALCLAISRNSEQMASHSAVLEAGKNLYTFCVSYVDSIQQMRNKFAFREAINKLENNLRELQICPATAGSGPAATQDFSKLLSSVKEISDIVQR
Sequence of AURKB (Aurora B) (Q96GD4 whole entry): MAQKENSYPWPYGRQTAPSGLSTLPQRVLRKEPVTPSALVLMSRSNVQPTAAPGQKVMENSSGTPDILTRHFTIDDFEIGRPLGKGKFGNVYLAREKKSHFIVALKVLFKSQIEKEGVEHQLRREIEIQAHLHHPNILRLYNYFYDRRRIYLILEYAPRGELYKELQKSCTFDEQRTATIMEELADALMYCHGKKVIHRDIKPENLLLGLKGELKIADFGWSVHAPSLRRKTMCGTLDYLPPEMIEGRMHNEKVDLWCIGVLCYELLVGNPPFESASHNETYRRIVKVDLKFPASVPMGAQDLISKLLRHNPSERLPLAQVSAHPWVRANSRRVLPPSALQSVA
Sequence of BcLxL (1-209, Δ45-84, N-terminal GST-fused) (Q07817 other isoform, or with tags, fused parts or gaps mutant): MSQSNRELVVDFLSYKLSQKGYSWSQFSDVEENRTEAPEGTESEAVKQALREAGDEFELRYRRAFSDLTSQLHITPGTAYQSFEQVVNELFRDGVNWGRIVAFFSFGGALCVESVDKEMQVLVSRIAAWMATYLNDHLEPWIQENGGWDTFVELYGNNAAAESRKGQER
Sequence of RET (P07949 29-1114): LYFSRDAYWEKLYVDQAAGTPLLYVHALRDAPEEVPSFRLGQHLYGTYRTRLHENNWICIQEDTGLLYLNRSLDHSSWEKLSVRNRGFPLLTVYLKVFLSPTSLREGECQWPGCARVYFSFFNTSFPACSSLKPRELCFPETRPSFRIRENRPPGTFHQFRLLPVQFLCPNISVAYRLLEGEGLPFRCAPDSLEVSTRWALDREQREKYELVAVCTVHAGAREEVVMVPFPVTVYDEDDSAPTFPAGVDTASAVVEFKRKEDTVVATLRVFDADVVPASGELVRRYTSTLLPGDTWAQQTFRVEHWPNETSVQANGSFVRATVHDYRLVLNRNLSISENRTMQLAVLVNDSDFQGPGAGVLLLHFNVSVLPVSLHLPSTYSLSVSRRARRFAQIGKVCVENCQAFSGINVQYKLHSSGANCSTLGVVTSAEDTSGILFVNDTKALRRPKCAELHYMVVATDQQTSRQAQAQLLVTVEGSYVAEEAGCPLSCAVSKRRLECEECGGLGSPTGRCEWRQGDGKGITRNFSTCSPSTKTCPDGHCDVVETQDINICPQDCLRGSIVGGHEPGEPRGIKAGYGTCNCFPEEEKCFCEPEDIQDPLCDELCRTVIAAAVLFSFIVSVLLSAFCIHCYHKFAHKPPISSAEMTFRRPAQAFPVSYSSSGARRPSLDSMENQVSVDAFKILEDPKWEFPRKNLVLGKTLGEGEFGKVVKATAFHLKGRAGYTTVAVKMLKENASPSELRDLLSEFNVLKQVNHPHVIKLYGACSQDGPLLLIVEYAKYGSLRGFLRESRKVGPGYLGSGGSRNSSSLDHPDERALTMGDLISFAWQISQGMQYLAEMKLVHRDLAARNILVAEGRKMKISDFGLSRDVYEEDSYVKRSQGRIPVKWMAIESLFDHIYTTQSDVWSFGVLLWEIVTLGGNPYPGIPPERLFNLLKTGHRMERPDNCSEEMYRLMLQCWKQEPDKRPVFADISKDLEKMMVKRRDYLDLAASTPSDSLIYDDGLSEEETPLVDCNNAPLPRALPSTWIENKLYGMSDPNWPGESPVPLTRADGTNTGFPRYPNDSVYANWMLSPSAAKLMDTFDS

NC(=O)[C@@H]1CCNC(=O)C=CC(=O)N[C@@H](C/C=C/c2ccccc2)C(=O)N[C@@H](CC2CCCCC2)C(=O)N[C@H](Cc2ccc(C(=O)c3ccccc3)cc2)C(=O)N1 [A12-B8-C10-D3]
enrichment upon selection for binding Pim1 [1]: 3.5 fold | enrichment upon selection for binding MAPKAPK2 [2]: 3 fold

NC(=O)[C@@H]1CNC(=O)C=CC(=O)N[C@@H](C/C=C/c2ccccc2)C(=O)N[C@@H](CC2CCCCC2)C(=O)N[C@H](Cc2ccc(C(=O)c3ccccc3)cc2)C(=O)N1 [A12-B8-C10-D4]
enrichment upon selection for binding Pim1 [1]: 10 fold | enrichment upon selection for binding MAPKAPK2 [2]: 3 fold

NC(=O)[C@@H]1CNC(=O)[C@@H](Cc2ccc(C(=O)c3ccccc3)cc2)NC(=O)[C@H](CC2CCCCC2)NC(=O)[C@H](C/C=C/c2ccccc2)NC(=O)C=CC(=O)N1 [A12-B8-C10-D8]
enrichment upon selection for binding Pim1 [1]: 6 fold | enrichment upon selection for binding MAPKAPK2 [2]: 2.5 fold

NC(=O)[C@@H]1CCNC(=O)[C@H](CCCNC(=O)c2cnccn2)NC(=O)[C@H](Cc2ccco2)NC(=O)[C@H](CC2CC2)NC(=O)C=CC(=O)N1 [Macrocycle A11-B1-C5-D7]
difference in potency between cis and trans stereoisomers (Src) [3]: ~10 fold | enrichment factor after selection against Src kinase [4]: 62 fold | selectivity for Src over Abl kinase [5]: > 50 fold | selectivity for Aurora A among the Aurora family [6]: > 100 fold

NC(=O)[C@@H]1CCNC(=O)[C@H](CCCNC(=O)c2cnccn2)NC(=O)[C@H](Cc2ccco2)NC(=O)[C@H](CC2CC2)NC(=O)/C=C\C(=O)N1 [cis-A11-B1-C5-D7]
selectivity for Src over all remaining Src-family kinases with the exception of Fgr [7]: > 10 fold | selectivity score ([7]; fraction of non-target kinases with IC50 within 10-fold of Src IC50 (960 nM)): 0.05 | IC50 [8, 20]: > 100 µM | IC50 [8, 21]: > 100 µM | IC50 [8, 22]: > 100 µM | IC50 [9, 20]: 16 µM | IC50 [9, 21]: 26 µM | IC50 [9, 22]: 89 µM | increase in IC50 upon increasing substrate peptide 3-fold to 300 μM ([9]; Src optimal substrate peptide 100 to 300 μM): 50% | Kd ([10]; 250 μM AMP-PNP): 3.3 µM | Kd ([10]; no competitor): 2.1 µM | IC50 ([3]; Z'-LYTE, ATP near KM): 0.96 µM | mode of Src inhibition ([3]; apparent KM for ATP versus macrocycle concentration): ATP-competitive | IC50 [11, 20]: > 100 µM | IC50 [11, 21]: > 100 µM | IC50 [11, 22]: > 100 µM | IC50 [12, 20]: > 100 µM | IC50 [12, 21]: > 100 µM | IC50 [12, 22]: > 100 µM | selectivity for Aurora A over Aurora B [13]: > 50 fold | selectivity for Src over Hck [14]: > 50 fold | IC50 [15]: 5.7 µM | selectivity for Src over Fyn [16]: > 50 fold | selectivity for Src over Abl kinase [5]: > 50 fold | IC50 ([6]; Aurora A, 10-point titration): 1.7 µM | IC50 [17]: 4 µM

CN[C@@H]1C[C@H]2O[C@@](C)([C@@H]1OC)n1c3ccccc3c3c4c(c5c6ccccc6n2c5c31)C(=O)NC4 [staurosporine]
selectivity score [18]: 0.50

Bak peptide (DNA-linked)
Enrichment Factor [19]: 200
